What was measured:
[1] = target: T1, adenosine A1 receptor (A1AR) (Homo sapiens, UniProt P30542); test: single-point [3H]DPCPX radioligand displacement at […] ([…])
T1 construct: gene ADORA1
T1 sequence (P30542 1-326): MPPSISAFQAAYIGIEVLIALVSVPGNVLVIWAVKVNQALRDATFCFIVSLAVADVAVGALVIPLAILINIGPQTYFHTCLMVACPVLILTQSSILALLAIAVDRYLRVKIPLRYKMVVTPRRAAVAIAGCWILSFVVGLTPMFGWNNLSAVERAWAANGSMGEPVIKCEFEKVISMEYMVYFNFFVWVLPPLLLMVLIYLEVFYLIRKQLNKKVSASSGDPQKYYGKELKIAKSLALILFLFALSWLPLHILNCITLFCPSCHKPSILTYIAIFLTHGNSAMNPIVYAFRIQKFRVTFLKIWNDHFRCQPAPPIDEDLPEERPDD

[2] = target: T1, adenosine A1 receptor (A1AR); test: [3H]DPCPX radioligand displacement on CHO-hA1AR membranes with […] h or […] h preincubation (apparent pKi […] and […]), wash-out, gel labeling, pull-down LC-MS/MS; type: binding

| SMILES | % displacement at 1 μM [1] | Ki [2] [nM] |
| --- | --- | --- |
| C#CCNc1nc(SCCCNC(=O)c2ccc(S(=O)(=O)F)cc2)c(C#N)c(-c2ccc3c(c2)OCO3)c1C#N [compound 1, 1] | ~ 70 |  |
| C#CCN(CCCSc1nc(N)c(C#N)c(-c2ccc3c(c2)OCO3)c1C#N)C(=O)c1ccc(S(=O)(=O)F)cc1 [compound 4, LUF7909] |  | 16 |
